In paper PMC9777025, “Silibinin Overcomes EMT-Driven Lung Cancer Resistance to New-Generation ALK Inhibitors” (Cancers, 2022):

Experiments:
TGFβR1/ALK5 = target: T1, TGFβR1/ALK5 (Homo sapiens, UniProt P36897); experiment: LanthaScreen Eu kinase binding assay (TR-FRET tracer displacement), 10-point titration
T1 construct: gene TGFBR1
T1 sequence (P36897 34-503): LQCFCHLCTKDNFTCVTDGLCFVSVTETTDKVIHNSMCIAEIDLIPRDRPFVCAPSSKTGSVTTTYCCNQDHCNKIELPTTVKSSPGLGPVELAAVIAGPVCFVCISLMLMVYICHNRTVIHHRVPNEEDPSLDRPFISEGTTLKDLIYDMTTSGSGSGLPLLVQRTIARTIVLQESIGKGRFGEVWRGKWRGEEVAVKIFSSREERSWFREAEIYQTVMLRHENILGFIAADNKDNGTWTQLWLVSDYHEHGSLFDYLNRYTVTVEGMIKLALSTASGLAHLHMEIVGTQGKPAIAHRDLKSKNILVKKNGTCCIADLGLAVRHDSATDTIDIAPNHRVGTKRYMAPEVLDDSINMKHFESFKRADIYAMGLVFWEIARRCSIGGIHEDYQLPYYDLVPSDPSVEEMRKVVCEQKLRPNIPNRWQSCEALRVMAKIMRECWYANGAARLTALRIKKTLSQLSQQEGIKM

TGFβR2 = target: T2, TGFβR2 (Homo sapiens, UniProt P37173); experiment: as above
T2 construct: gene TGFBR2

H2228 = experiment: cells; design: species or system H2228/CR, H3122, H3122/CR; MTT cell viability assay, absorbance at 570 nm, IC50 by interpolation; details: Homo sapiens, NCI-H2228; without silibinin
Procedure: (§1) 2.5. Cell Viability Assay The cell viability effects of ALK–TKIs and silibinin were determined using the colorimetric MTT (3-4,5-dimethylthiazol-2-yl-2,5-diphenyl-tetrazolium bromide) reduction assay. Dose-response curves to graded concentrations of drugs were plotted as a percentage of the control cell absorbance, which was obtained from control cells containing the vehicle processed simultaneously. For each treatment, cell viability was evaluated using the following equation: (OD570 of the treated sample/OD570 of the untreated sample) × 100. Sensitivity to agents was expressed in terms of the concentrations required for a 50% (IC50) reduction in cell viability. Since the percentage of control absorbance was considered to be the surviving fraction of cells, the IC50 values were defined as the concentration of drug that produced a 50% reduction in control absorbance (by interpolation).

H2228/CR = system: T3, H2228/CR; experiment: cells; design: species or system H3122, H3122/CR; MTT cell viability assay, absorbance at 570 nm, IC50 by interpolation; details: Homo sapiens, NCI-H2228; without silibinin
T3 construct: crizotinib-resistant H2228
Procedure: as §1

H3122 = experiment: cells; design: species or system H2228, H2228/CR, H3122/CR; MTT cell viability assay, absorbance at 570 nm, IC50 by interpolation; details: Homo sapiens, NCI-H3122; without silibinin
Procedure: as §1

H3122/CR = system: T4, H3122/CR; experiment: cells; design: species or system H2228, H2228/CR; MTT cell viability assay, absorbance at 570 nm, IC50 by interpolation; details: Homo sapiens, NCI-H3122; without silibinin
T4 construct: crizotinib-resistant H3122
Procedure: as §1

T2 sequence (P37173 23-567): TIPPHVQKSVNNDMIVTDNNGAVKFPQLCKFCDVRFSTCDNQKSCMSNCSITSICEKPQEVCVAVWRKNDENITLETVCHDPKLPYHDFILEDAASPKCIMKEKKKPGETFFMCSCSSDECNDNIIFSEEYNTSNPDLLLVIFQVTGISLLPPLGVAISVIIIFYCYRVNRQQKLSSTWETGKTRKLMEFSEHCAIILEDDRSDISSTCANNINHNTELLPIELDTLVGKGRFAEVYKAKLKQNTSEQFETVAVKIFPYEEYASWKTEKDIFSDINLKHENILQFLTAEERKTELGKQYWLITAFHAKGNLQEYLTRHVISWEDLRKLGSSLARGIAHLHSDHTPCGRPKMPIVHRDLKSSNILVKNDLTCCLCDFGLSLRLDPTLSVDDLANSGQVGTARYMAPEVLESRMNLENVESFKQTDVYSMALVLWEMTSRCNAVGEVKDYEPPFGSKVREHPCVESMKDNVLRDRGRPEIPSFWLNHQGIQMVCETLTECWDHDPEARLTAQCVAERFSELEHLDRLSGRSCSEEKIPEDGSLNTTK

IC50 (TGFβR1/ALK5) [µM]	IC50 (TGFβR2) [µM]	IC50 (H2228) [µM]	IC50 (H2228/CR) [µM]	IC50 (H3122) [µM]	IC50 (H3122/CR) [µM]	Compound
70	56	–	–	–	–	COc1cc(C2Oc3cc([C@H]4Oc5cc(O)cc(O)c5C(=O)[C@@H]4O)ccc3OC2CO)ccc1O (mixture of isomers) [silibinin]
–	–	0.5	3.8	0.02	0.12	COc1cc(N2CCC(N3CCN(C)CC3)CC2)ccc1Nc1ncc(Cl)c(Nc2ccccc2P(C)(C)=O)n1 [brigatinib]
–	–	2.1	10.6	0.29	1.08	C[C@@H](Oc1cc(-c2cnn(C3CCNCC3)c2)cnc1N)c1c(Cl)ccc(F)c1Cl [crizotinib]
–	–	1	83	0.004	0.02	C[C@H]1Oc2cc(cnc2N)-c2c(nn(C)c2C#N)CN(C)C(=O)c2ccc(F)cc21 [lorlatinib]
